“Also recorded” adds a separate entry of the source.
Assays:
[1] = test system: MDA-MB231; assay: Cell viability, CTG, MDA-MB231; assay type: cell-based; details: Homo sapiens, MDA-MB-231, MDA-MB231 (Breast)
Method: To measure cell viability, cell titer glow (CTG, Promega CellTiter-Glo 2.0 Assay) and MTT assays (SigmaAldrich, Cell Proliferation Kit I) were performed. Briefly, cells were serum starved overnight prior to seeding in 96-well plates. Following 24 h incubation, cells were treated with increasing concentrations of JGJ compounds for 96 hr. At assay read-out, CellTiter-Glo reagent was added and luminescence was measured after 10-minutes incubation at room temperature. For the MTT assay, MTT labeling reagent was added and incubated for 4 h. Subsequently, medium was removed and 50 μL DMSO was added to solubilize the crystals, and absorbance was measured at 570 nm. Cell viability was calculated as (Sample-Background)/(Control-Background). Current standard of care drugs, Enzalutamide, Palbociclib and Cetuximab were used as comparative controls.

[2] = molecular target: CYP 2C19 (Homo sapiens, UniProt P33261); assay: CYP inhibition 2C19; assay type: in vitro ADME; design: unit not given here; details: Conc. 30 uM
[3] = molecular target: T1, CYP 2C8 (Homo sapiens, UniProt P10632); assay: CYP inhibition 2C8; assay type: in vitro ADME; design: unit not given here; details: Conc. 30 uM
T1 sequence (P10632 1-490): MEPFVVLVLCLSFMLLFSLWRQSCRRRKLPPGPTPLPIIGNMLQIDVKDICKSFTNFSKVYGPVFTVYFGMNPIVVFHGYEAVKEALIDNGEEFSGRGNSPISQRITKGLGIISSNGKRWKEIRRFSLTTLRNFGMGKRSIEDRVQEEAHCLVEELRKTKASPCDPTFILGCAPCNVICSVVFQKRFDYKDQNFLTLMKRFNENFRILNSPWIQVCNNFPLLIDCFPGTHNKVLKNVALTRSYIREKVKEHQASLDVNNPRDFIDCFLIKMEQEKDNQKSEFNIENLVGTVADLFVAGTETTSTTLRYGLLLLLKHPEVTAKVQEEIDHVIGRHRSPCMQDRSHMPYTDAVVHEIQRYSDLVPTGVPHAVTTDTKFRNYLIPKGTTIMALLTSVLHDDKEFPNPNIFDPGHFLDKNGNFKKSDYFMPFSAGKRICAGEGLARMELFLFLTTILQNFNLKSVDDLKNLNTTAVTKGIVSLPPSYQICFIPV

[4] = Microsomal stability, Human; assay type: in vitro ADME; details: Conc. 30 uM; for CLint scaled at 30 uM / half-life at 30 uM: microsomes; for half-life at 30 uM: read-out: Microsomal stability T½
[5] = molecular target: T2, CYP 1A2 (Homo sapiens, UniProt P05177); assay: CYP inhibition 1A2; assay type: in vitro ADME; design: unit not given here; details: Conc. 30 uM
T2 sequence (P05177 1-516): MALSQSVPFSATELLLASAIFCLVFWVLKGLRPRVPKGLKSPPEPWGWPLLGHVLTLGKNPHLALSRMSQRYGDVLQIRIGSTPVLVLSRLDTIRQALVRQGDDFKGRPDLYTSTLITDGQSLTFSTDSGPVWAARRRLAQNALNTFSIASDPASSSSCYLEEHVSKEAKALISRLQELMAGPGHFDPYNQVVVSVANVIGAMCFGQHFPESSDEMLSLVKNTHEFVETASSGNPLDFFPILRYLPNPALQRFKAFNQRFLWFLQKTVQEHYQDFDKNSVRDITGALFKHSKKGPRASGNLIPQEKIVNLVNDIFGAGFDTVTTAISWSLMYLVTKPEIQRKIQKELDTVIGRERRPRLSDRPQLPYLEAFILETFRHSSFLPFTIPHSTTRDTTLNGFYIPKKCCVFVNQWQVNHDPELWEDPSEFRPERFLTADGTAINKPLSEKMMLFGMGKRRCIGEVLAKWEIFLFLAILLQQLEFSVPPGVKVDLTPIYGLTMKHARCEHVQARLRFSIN

[6] = molecular target: LIN28B protein (Homo sapiens, UniProt Q6ZN17); assay: Western blot of LIN28B protein levels in AML cells; details: Kasumi-1 and THP-1; 1632 120-160 μM
Method: Thus, we subcutaneously (subQ) implanted THP-1 (high LIN28B) cells or MOLM-13 (no LIN28B) into NSG mice and 12 d later (tumor size=40 mm^2) started administration of 1632 IP at 100 mg/kg every other day.

[7] = test system: Kasumi-1; assay: Systemic Kasumi-1 AML xenograft; assay type: in vivo, mice; details: systemic Kasumi-1 xenograft; for Animal survival: IP 100 mg/kg every other day for 21 d; for Tumor burden (bioluminescence imaging): IP 100 mg/kg every other day, d+26
Method: Subsequently, the tumor suppressive effect of LN1632 in cancer in vivo was assessed. High LIN28B expressing THP-1 AML cells (2×10^6 cells) were implanted in NSGS mice (cell suspension in matrigel, 3:1) and at d+12 or d+8 (tumor size=50 mm^2) injection of LN1632 IP at 100 mg/kg daily was initiated. […] The effect of LN1632 in a systemic Kasumi-1 xenograft was also assessed. […] The effects of LN1632 to cytarabine chemotherapy (Ara-C) was also compared, as previously described (74). THP-1 AML cells were subcutaneously implanted (1.5×10^6 cells, high LIN28B) in NSGS mice. Daily IP injections with 100 mg/kg LN1632, 60 mg/kg cytarabine chemotherapy (Ara-C), or vehicle was started at +d3 post AML cell implantation and continued until the vehicle group reached maximal allowed tumor size (250 mm^2).

[8] = test system: let-7a/b and let-7 target genes; assay: miRNA and let-7 target gene expression in primary AML patient cells; assay type: cell-based, human; details: primary AML cells from three relapsed patients; 80-120 μM, 72 h
Excerpt: To measure the complete degree to which LN1632 regulates gene expression, we carried out RNA sequencing (RNAseq) in LSC-like Kasumi-1 cells. […] Importantly, we confirmed this gene expression pattern in primary AML cells from three relapsed patients (validated for LIN28B overexpression compared to healthy WBM). […] This is important because NFκB1, regulated by let-7 through IL6 (23) is, together with other BCL-2 family members (BAX, BCL2L15 and BMF, FIG. 5A), a well characterized gene associated with unique properties of LSC survival and AML relapse (45, 59, 60). […] We next explored the effect of LN1632 on primary AML cells.

CYP 2C19, sequence (P33261 whole entry): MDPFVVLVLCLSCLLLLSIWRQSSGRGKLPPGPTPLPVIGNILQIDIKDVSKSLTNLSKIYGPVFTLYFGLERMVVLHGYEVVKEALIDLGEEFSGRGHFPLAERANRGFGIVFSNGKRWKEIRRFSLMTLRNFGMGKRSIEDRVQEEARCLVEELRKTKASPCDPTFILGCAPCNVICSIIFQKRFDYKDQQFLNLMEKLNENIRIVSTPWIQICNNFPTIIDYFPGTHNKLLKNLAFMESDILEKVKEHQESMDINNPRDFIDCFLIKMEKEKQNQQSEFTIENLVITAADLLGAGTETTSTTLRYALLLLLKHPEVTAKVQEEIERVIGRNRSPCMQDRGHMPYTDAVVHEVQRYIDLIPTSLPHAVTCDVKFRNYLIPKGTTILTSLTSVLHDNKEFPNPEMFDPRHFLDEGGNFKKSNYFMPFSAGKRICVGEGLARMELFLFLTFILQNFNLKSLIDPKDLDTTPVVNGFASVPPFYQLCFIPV
LIN28B protein, sequence (Q6ZN17 whole entry): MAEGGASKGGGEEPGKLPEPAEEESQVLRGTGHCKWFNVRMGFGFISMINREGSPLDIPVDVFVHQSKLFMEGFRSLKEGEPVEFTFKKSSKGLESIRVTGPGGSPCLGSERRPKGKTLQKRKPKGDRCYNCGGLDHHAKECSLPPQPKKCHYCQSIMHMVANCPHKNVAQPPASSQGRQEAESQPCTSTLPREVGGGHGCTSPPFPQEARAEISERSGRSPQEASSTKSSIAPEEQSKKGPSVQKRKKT

IC50 [1] [µM] | CYP inhibition 2C19 [2] | CYP inhibition 2C8 [3] | Microsomal stability % Remaining at T30 [4] | CLint scaled at 30 uM [4] [mL/min/kg] | half-life at 30 uM [4] [min] | CYP inhibition 1A2 [5] | Compound | LIN28B protein levels [6] | Animal survival ([7]; 100 mg/kg) | Animal survival ([7]; listed as 1632, 100 mg/kg) | Tumor burden (bioluminescence imaging) ([7]; 100 mg/kg) | Tumor burden (bioluminescence imaging) ([7]; listed as 1632, 100 mg/kg) | Mature let-7a/b and let-7 target gene expression [8]
43 | 37.08 | 19.11 | T30 = 72.8% | 19 | 65.6 | 97.3 | CC(=O)Nc1cccc(-c2ccc3ncc(C)n3n2)c1 [JGJ007, N-(3-(3-Methylimidazo[1,2-b]pyridazin-6-yl)phenyl)acetamide] | – | – | – | – | – | –
75 | 49.8 | 17.82 | T30 = 6.9% | 161 | 7.76 | 96.4 | Cc1cnc2ccc(-c3cccc(F)c3)nn12 [JGJ015, 6-(3-Fluorophenyl)-3-methylimidazo[1,2-b]pyridazine] | – | – | – | – | – | –
– | – | – | – | – | – | – | CC(=O)N(C)c1cccc(-c2ccc3nnc(C)n3n2)c1 [LN1632] | inhibits LIN28B protein expression; also recorded: dose-dependently decreases LIN28B protein levels | significantly prolonged animal survival; also recorded: prolongs survival | prolongs survival; also recorded: significantly prolonged animal survival | decreased tumor burden; also recorded: reduces tumor burden | reduces tumor burden; also recorded: decreased tumor burden | dose-dependent, significant upregulation of mature let-7a/b and downregulation of multiple let-7 target genes
